Source: patent US7598032B2, “Thermostable DNA polymerases incorporating nucleoside triphosphates labeled with fluorescent dyes” (Roche Molecular Systems, priority 1997, dated 2009)

Key:
Assay type in all cases: biochemical
[1] = test system: primer DG48 annealed to M13 mp18 template; assay: limiting template, primer extension competition assay (ddNTP incorporation assay); conditions: ratio of concentrations for 50% inhibition by Zowie-ddCTP vs. ddCTP
Protocol: The ability of the enzymes of this invention to efficiently incorporate nucleotides labeled with fluorescein family dyes is measured by ddNTP incorporation assays. One such assay is a primer extension competition assay conducted under conditions of limiting template. In this assay, a primer DG48 (5′-[…]), (SEQ ID NO: 11), bound to M13 mp18 template (Innis et al., 1988, Proc. Natl. Acad. Sci. USA 85:9436) is extended in the presence of [α-^33P]dCTP and excess enzyme with various levels of a fluorescently labeled ddNTP, Zowie-ddCTP. Because the incorporation of a ddCTP residue terminates the extension reaction, the more readily a DNA polymerase incorporates a ddCTP into an extended primer, the less [α-^33P]dCTP can be incorporated. Thus, as the efficiency of fluorescently labeled ddCTP incorporation increases, the extent of inhibition of DNA synthesis is increased. The reactions were also performed with various levels of an unlabeled ddCTP. […]
The relative abilities of G46D F667Y Taq, G46D F667Y E681K Taq and F730Y Tma30 DNA polymerases to incorporate a fluorescein dye family-labeled ddCTP were compared by use of a limiting template, primer extension competition assay. […] In this competition assay, because the incorporation of a ddCTP terminates the extension reaction, the more readily the polymerase incorporates a ddCTP into an extended primer, the less [α-^33P]dCTP can be incorporated. […]

[2] = test system: primer annealed to an M13 template; assay: Extension rate assay; conditions: 75° C
Protocol: The extension rate of G46D F667Y Taq and G46D F667Y E681K Taq were determined using an extension rate assay. In this experiment, the enzymes were used to extend a primer annealed to an M13 template in the presence of [α-^33P]dCTP. The extension reactions were denatured and the products analyzed by denaturing agarose gel electrophoresis.
The assay was performed as previously described (Lawyer et al., 1989, J. Biol. Chem. 264:6427) including the following modifications. The assay mixture was composed so the final concentration was 50 mM Bicine pH 8.3, 25° C., 2.5 mM MgCl2, 1 mM β-mercaptoethanol, 200 μM each of dATP, dGTP and dTTP (Perkin-Elmer), 100 μM dCTP (Perkin-Elmer) containing [α-^33P]dCTP (New England Nuclear, Boston, Mass.). M13 mp18 (Perkin-Elmer) was annealed to primer DG48, (SEQ ID NO: 11), and the equivalent of 0.085 pmoles of the annealed template was added to the assay mixture for each reaction. Forty-five μl of the assay mixture with template DNA was added to each of fourteen 0.5 ml eppendorf tubes. Each tube was preincubated at 75° C. for at least 30 seconds before the start of the polymerase reaction.
Polymerization was initiated in six of the fourteen assay tubes with 5 μl of G46D F667Y Taq DNA polymerase (2.5 units) or G46D F667Y E681K Taq DNA polymerase (1.25 units). Both enzymes were prepared as in Example I and the concentration used represents a predetermined excess amount of enzyme for the amount of substrate in the assay. As a control for the level of background, the remaining negative control was initiated with enzyme dilution buffer rather than polymerase. All reaction tubes were immediately vortexed briefly and incubated at 75° C. Two of the six tubes containing G46D F667Y Taq DNA polymerase were incubated 3 minutes, two for 6 minutes and two for 10 minutes. Similarly, two of the tubes started with G46D F667Y E681K Taq DNA polymerase were incubated for 30 seconds, two for 1 minute and two for 2 minutes. The control tubes were incubated for 3 minutes. The reactions were stopped by addition of 10 μl 60 mM EDTA and stored at 0° C.
For each reaction, a 25 μl aliquot of the 60 μl reaction was diluted with 1 ml 2 mM EDTA, 50 μg/ml sheared salmon sperm DNA as a carrier. The DNA was precipitated with TCA using standard procedures and collected on GF/C filter discs (Whatman). The amount of incorporated [α-^33P]dCMP was determined for each sample.
The remaining 35 μl of each duplicated were combined and the 70 μl sample was ethanol precipitated, dried and resuspended in 50 mM NaOH, 1 mM EDTA. Aliquots were removed from these samples such that an equal number of α-^33P] counts were taken from each. These aliquots were loaded on an 0.9% alkaline agarose gel, electrophoresed, dried and autoradiographed as previously described (Maniatis et al., 1982, In Molecular Cloning: A Laboratory Manual, Cold Spring Harbor Laboratory, Cold Spring Harbor, N.Y.) Bacteriophage lambda DNA cut with restriction enzyme HindIII (BRL) and 5′ end-labeled with [^32P] was used as a molecular weight standard.
The length in base pairs of the extension product in each sample was determined by comparison of the migration distance of each sample with the distance migrated by the lambda DNA size standard. The number of base pairs in each product was divided by the number of seconds each extension reaction incubated to give the extension rate as shown below.

[3] = screen of transformants for incorporation of [α-32P]Tet-dCTP; conditions: in comparison to the wild-type enzyme
Source text: The C-terminal amino acid portion of Taq DNA polymerase encodes the polymerase active site domain (Lawyer et al., 1993, PCR Methods and Applications 2:275-287, Freemont et al., 1986, Proteins: Structure, Function and Genetics 1:66-73, which are incorporated herein by reference). A DNA fragment containing this region was isolated from the full-length Taq gene and mutagenized by PCR amplification in the presence of manganese (Leung et al, 1989, Technique 1(1):11-15). For this example, all restriction enzymes were purchased from New England Biolabs, Beverly Mass. The mutagenized fragments were digested with PstI and BglII and cloned into a Taq expression plasmid, pLK102, which had been digested with PstI and BglII. Plasmid pLK102 is a derivative of pLK101 in which the 900 bp PstI-BglII fragment is replaced by a short PstI-BglII linker. […]
The mutagenized Taq expression plasmid of mutant CS1 was digested with HindIII/NheI and the resulting restriction fragment was subcloned into the wild-type gene of pLK101, replacing the unmutagenized HindIII/NheI fragment, to determine which portion of the mutagenized Taq polymerase gene was responsible for the altered phenotype. […] Subsequent subclone analysis determined that the mutation was located in the 265 bp BamHI-NheI fragment.

[4] = standard PCR reaction with cyanine-labeled dNTPs; conditions: compared with the wild-type enzyme
Source text: Although the examples provided herein use dideoxynucleotides labeled with fluorescein family dyes, the use of other unconventional nucleotides and fluorescent dyes is also within the scope of this invention. Other unconventional nucleotides include fluorescently-labled dNTPs, which can be used to label the products of DNA synthesis, and fluorescently-labled rNTPs, which can be used to label the primer extension products. Other dyes include other negatively charged fluorescent dyes, such as BODIPY, which are structurally and chemically similar to fluorescein. Other dyes also include cyanine dyes. Cyanine-labeled dNTPs were added to a standard PCR reaction which included a Taq DNA polymerase with the […] mutation (and a G46D mutation). […] Thus, in this aspect, a method of labeling DNA of the invention uses a native or mutant polymerase of the invention in combination with a nucleotide labeled with either a negatively charged fluorescent dye or a cyanine dye. In one embodiment, the DNA labeling method of the invention comprises: […]

G46D F667Y Taq: Taq DNA polymerase having an F667Y mutation and a G46D mutation; known as AmpliTaq, FS [reference compound]
Zowie-ddCTP/ddCTP (ratio of concentrations for 50% inhibition) [1]: 25
extension rate, Base Pairs/Sec ([2]; Time 3 min.): 12.5 Base Pairs/Sec
extension rate, Base Pairs/Sec ([2]; Time 6 min.): 12.2 Base Pairs/Sec
extension rate, Base Pairs/Sec ([2]; Time 10 min.): 11.8 Base Pairs/Sec

Mutant CS1: mutagenized Taq DNA polymerase clone (plasmid pCS1) carrying the E681K mutation
ability to incorporate [α-32P]Tet-dCTP [3]: more efficiently incorporate

G46D E681K Taq: thermostable Taq DNA polymerase with G46D and E681K mutations, encoded by plasmid pLK112
incorporation of cyanine-labeled dNTPs into amplification products [4]: higher than for the wild-type enzyme
